Among the data in ChEMBL document CHEMBL1152688, “Bioorganic synthesis of a recombinant HIV-1 fusion inhibitor, SC35EK, with an N-terminal pyroglutamate capping group” (Bioorg Med Chem, 2009) are EC50 and Stability values, retold here.

Non-standard residues stand in square brackets, D forms with d. Residues, ends and D or L forms follow the SMILES beside them. *: point of attachment. hSer(lactone) = O=C1OCC[C@@H]1N*; pGlu = O=C1CC[C@@H](C(=O)O)N1

As usually defined, the EC50 is the concentration giving half of the maximal effect.

The subject of series [1] is Human immunodeficiency virus 1. Briefly: Antiviral activity against HIV1 NL4-3 infected in human HeLa cells expressing CD4/CCR5-LTR-beta-gal genes assessed as blockade of viral infection by X-gal staining based MAGI method. The format is functional, organism-based. As to conditions: Human immunodeficiency virus 1, NL4-3, HeLa.
For the next series, the system named is Serum. Briefly: Stability in mouse serum assessed as compound degradation by LC-MS analysis. The format is ADME, cell-free.

As for “Ac-WEEWDKKIEEYTKKIEELIKKSEEQQKKNEEELKK-NH2”, in series [1], the EC50 turned out to be 0.5 nM. Further, the Stability entry in the series with Serum was “Stable”.
In the case of “H-WEEWDKKIEEYTKKIEELIKKSEEQQKKNEEELKK-OH”, the EC50 in series [1] stood at 2.43 nM. For the same compound, the Stability entry in the series on Serum is listed as “Unstable”.
The corresponding values for `CC[C@H](C)[C@H](NC(=O)[C@H](CC(C)C)NC(=O)[C@H](CCC(=O)O)NC(=O)[C@H](CCC(=O)O)NC(=O)[C@@H](NC(=O)[C@H](CCCCN)NC(=O)[C@H](CCCCN)NC(=O)[C@@H](NC(=O)[C@H](Cc1ccc(O)cc1)NC(=O)[C@H](CCC(=O)O)NC(=O)[C@H](CCC(=O)O)NC(=O)[C@@H](NC(=O)[C@H](CCCCN)NC(=O)[C@H](CCCCN)NC(=O)[C@H](CC(=O)O)NC(=O)[C@H](Cc1c[nH]c2ccccc12)NC(=O)[C@H](CCC(=O)O)NC(=O)[C@H](CCC(=O)O)NC(=O)[C@H](Cc1c[nH]c2ccccc12)NC(=O)[C@@H]1CCC(=O)N1)[C@@H](C)CC)[C@@H](C)O)[C@@H](C)CC)C(=O)N[C@@H](CCCCN)C(=O)N[C@@H](CCCCN)C(=O)N[C@@H](CO)C(=O)N[C@@H](CCC(=O)O)C(=O)N[C@@H](CCC(=O)O)C(=O)N[C@@H](CCC(N)=O)C(=O)N[C@@H](CCC(N)=O)C(=O)N[C@@H](CCCCN)C(=O)N[C@@H](CCCCN)C(=O)N[C@@H](CC(N)=O)C(=O)N[C@@H](CCC(=O)O)C(=O)N[C@@H](CCC(=O)O)C(=O)N[C@@H](CCC(=O)O)C(=O)N[C@@H](CC(C)C)C(=O)N[C@@H](CCCCN)C(=O)N[C@@H](CCCCN)C(=O)N[C@H]1CCOC1=O` ([pGlu]WEEWDKKIEEYTKKIEELIKKSEEQQKKNEEELKK-{hSer(lactone)}) are 0.57 nM and “Stable”.
